Assay: Solubility test (Chinese Pharmacopoeia 2010)
Assay type: physicochemical
Conditions: 0.1M HCl, 25±2° C., 300 mg ground powder sample, shaken 30 seconds at 5 minute intervals, 30 minutes total, dissolution judged by eye; for Solubility: hydrochloride
Protocol: According to the solubility test described in “Chinese Pharmacopoeia 2010”, Topic and Requirement 15, the grinded sample in powder form was added to a certain amount of solvent at 25±2° C. […] The solid was deemed as dissolved when no solid was detected in the mixture by human eyes.

Solubility [mg/mL]	solubility at 30 min (25 °C, simulated gastric fluid, thermodynamic from solid) [mg/mL]	Compound
50	–	CC(=O)Oc1cc2c(s1)CCN(C(C(=O)C1CC1)c1ccccc1F)C2.Cl (stereo not shown) [Form H2, prasugrel hydrochloride]
–	40	CC(=O)Oc1cc2c(s1)CCN(C(C(=O)C1CC1)c1ccccc1F)C2.Cl (stereo not shown) [Form B2, prasugrel hydrochloride]
50	–	CC(=O)Oc1cc2c(s1)CCN(C(C(=O)C1CC1)c1ccccc1F)C2.Cl (stereo not shown) [Form H3, prasugrel hydrochloride]
50	–	CC(=O)Oc1cc2c(s1)CCN(C(C(=O)C1CC1)c1ccccc1F)C2.Cl (stereo not shown) [Form H1, prasugrel hydrochloride]

From patent US8937053B2, “Process for the preparation of prasugrel and several novel crystalline forms of prasugrel hydrochloride” (Sunshine Lake Pharma Co., Ltd., priority 2011, dated 2015)
